According to patent US20250122502A1, “Bifunctional Molecules and Methods of Using Thereof” (FLAGSHIP PIONEERING, INC., priority 2021, published 2025):

Tested on: MYC expression in HEK293T cells
Test: MYC expression by qPCR after RNAiMax transfection
Type: cell-based, human
Settings: 100 nM, 24 hours
Protocol: HEK293T cells were seeded at 30 k cells/well in a 96 well tissue culture vessel day before transfection. The next day cells were transfected with 400, 200, 100, 50 nM of PVT1 ASO1-JQ1 with Lipofectamine RNAiMax (ThermoFisher Cat #13778150). […] Transfected cells were allowed to recover and were harvested after 24 hours. MYC expression was measured by RNA level using qPCR analysis after transfection with each of the bi-functional molecule or control molecules. Cell samples for qPCR analysis were prepared by Cells to Ct 1 Step TaqMan Kit (ThermoFisher A25602) following manufacturer's recommendations. qPCR assays were performed using Cells to Ct qPCR master mix, gene specific TaqMan probe (ThermoFisher), and Cells to Ct cell lysate. Relative levels of MYC were normalized to β-actin as a stably expressed control. MYC TaqMan probe: […] ACTB TaqMan probe: […] During qPCR amplification, FAM fluorescence intensity for each target gene was recorded by QuantStudio7 qPCR instrument (ThermoFisher Scientific) as a measurement of the amount of double-stranded DNA produced during each PCR cycle. Ct values for each gene in each sample were computed by the instrument software based on the amplification curves, and used to determine relative expression values for target and β-actin in each sample.

Substance | MYC expression change (in words)
PVT1-Scr1: partially scrambled PVT1 ASO1 (SEQ ID NO: 63) conjugated to JQ1 (antisense TGAAGTGGAATTCCAGTTG; listed as DNA, chemistry not fully specified) | less impact
PVT1-Scr4: partially scrambled PVT1 ASO1 (SEQ ID NO: 66) conjugated to JQ1 (antisense GTAAGTGGAATTCCATTGG; listed as DNA, chemistry not fully specified) | less impact
